Source: ChEMBL document CHEMBL1130170, “Orally active trifluoromethyl ketone inhibitors of human leukocyte elastase” (J Med Chem, 1997)
Where a SMILES comes first, the peptide text is derived from it. The star is where a group is joined. CF3 = FC(F)(F)*; Moc = COC(=O)*

Assays:
[1] = Oral integrated area under the concentration vs time curve, for compound in rat plasma; type: ADME, organism-based
[2] = target: T1, Mast cell carboxypeptidase A (Homo sapiens, UniProt P15088); assay: Binding affinity for carboxypeptidase A; No inhibition at 188 uM (highest concentration tested)
T1 sequence (P15088 whole entry): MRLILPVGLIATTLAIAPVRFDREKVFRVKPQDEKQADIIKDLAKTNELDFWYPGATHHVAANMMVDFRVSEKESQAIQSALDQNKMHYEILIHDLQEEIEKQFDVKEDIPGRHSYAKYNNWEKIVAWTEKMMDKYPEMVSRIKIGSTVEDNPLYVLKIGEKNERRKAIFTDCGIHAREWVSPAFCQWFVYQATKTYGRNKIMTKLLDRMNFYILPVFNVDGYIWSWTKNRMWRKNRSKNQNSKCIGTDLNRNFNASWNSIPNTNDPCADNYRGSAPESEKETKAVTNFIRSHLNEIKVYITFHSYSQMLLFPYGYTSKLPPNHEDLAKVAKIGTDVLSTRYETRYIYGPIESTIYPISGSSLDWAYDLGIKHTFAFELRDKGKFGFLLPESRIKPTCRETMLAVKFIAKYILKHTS

[3] = Ratio of intravenous to oral integrated area under the concentration vs time curve, for compound in dog plasma; type: ADME, organism-based, Canis lupus familiaris
Neutrophil elastase = target: T2, Neutrophil elastase (Homo sapiens, UniProt P08246); assay: Binding affinity for human leukocyte elastase
T2 sequence (P08246 whole entry): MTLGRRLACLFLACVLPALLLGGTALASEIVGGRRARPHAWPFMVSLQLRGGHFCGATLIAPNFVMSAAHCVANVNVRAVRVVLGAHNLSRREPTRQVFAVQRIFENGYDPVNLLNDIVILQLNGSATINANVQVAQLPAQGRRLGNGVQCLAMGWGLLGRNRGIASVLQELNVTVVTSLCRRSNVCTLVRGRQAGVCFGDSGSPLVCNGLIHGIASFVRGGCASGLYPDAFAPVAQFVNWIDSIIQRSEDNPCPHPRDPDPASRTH

[4] = Oral integrated area under the concentration vs time curve, for compound in hamster plasma; type: ADME, organism-based; conditions: cricetinae
Serine protease 1 [5] = target: T3, Serine protease 1 (Homo sapiens, UniProt P07477); assay: Binding affinity for human pancreatic trypsin
[6] = Oral integrated area under the concentration vs time curve, for compound in dog plasma; type: ADME, organism-based, Canis lupus familiaris
[7] = target: T4, Angiotensin-converting enzyme (Oryctolagus cuniculus, UniProt P12822); assay: Binding affinity for rabbit lung Angiotensin I converting enzyme; No inhibition at 188 uM (highest concentration tested)
T4 sequence (P12822 whole entry): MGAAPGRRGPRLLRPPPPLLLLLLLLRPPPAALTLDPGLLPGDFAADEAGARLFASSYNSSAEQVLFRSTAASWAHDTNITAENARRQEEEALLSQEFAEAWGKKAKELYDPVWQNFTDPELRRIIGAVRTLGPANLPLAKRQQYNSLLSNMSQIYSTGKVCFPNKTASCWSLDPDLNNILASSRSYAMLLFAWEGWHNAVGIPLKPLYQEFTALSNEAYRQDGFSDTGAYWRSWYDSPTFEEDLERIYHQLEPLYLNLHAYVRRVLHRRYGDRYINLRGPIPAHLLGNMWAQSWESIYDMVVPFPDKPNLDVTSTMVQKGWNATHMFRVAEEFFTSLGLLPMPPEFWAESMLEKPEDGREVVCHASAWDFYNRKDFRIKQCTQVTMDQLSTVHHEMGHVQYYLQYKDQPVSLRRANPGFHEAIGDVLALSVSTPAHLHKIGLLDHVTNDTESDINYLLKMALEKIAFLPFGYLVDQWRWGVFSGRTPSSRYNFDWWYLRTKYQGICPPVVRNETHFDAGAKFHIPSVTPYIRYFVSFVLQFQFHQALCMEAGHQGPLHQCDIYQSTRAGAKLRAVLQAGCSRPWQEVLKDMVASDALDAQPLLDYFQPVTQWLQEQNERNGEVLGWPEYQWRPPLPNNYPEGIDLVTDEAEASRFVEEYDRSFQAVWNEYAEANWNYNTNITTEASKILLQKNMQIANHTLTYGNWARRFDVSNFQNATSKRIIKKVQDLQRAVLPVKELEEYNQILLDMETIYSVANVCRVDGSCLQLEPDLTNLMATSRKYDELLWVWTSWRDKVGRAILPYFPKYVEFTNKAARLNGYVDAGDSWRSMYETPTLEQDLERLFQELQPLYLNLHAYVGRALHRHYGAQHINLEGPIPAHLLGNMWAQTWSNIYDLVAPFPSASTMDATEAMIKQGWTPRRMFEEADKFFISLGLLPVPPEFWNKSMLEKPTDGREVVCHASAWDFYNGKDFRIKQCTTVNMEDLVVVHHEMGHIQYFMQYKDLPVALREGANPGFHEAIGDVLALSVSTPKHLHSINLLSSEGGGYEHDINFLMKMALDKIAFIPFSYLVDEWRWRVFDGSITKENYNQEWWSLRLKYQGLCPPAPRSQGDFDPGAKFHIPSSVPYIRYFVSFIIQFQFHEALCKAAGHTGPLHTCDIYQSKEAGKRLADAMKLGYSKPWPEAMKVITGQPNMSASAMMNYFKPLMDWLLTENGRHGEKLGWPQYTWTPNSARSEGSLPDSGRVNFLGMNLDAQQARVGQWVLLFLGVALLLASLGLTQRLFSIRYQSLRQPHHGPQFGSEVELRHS

Cathepsin G = target: T5, Cathepsin G (Homo sapiens, UniProt P08311); assay: Binding affinity for human leukocyte cathepsin G; No inhibition at 188 uM (highest concentration tested)
T5 sequence (P08311 whole entry): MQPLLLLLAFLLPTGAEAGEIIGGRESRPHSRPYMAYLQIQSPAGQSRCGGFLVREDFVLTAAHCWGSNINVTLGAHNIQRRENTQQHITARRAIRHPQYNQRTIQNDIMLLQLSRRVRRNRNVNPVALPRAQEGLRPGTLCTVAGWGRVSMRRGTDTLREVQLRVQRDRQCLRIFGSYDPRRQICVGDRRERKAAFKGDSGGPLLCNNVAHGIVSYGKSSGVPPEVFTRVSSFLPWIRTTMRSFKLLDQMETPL

[8] = +Ratio of intravenous to oral integrated area under the concentration vs time curve, for compound in dog plasma; type: ADME, organism-based, Canis lupus familiaris
Acetylcholinesterase = Acetylcholinesterase (Homo sapiens, UniProt P22303); assay: Binding affinity for human erythrocyte Acetylcholinesterase; No inhibition at 188 uM (highest concentration tested)
Serine protease 1 [9] = target: T3, Serine protease 1; assay: Binding affinity for human pancreatic trypsin; […]

T3 sequence (P07477 whole entry): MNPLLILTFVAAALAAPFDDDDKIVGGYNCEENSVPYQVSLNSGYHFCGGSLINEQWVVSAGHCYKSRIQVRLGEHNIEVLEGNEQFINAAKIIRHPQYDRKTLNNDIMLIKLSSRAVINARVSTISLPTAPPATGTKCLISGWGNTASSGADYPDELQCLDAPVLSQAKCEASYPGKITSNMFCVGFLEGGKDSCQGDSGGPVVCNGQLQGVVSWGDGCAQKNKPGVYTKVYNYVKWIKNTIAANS
Chain of Acetylcholinesterase (P22303 whole entry): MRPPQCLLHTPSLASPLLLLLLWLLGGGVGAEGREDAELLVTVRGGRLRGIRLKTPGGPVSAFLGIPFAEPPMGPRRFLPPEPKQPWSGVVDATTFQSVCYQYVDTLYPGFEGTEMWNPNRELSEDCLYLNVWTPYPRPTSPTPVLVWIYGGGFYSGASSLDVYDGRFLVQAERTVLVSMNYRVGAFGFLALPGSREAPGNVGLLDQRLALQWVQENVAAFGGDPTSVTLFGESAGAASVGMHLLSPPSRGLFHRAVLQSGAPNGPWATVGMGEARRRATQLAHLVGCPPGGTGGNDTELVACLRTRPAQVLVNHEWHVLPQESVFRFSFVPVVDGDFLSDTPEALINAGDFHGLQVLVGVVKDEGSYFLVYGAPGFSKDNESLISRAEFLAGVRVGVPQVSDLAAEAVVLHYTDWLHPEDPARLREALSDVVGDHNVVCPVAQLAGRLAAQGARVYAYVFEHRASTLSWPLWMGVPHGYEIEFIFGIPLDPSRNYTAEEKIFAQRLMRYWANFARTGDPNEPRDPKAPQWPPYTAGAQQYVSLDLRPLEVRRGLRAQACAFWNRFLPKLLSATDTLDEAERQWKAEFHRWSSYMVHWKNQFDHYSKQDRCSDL

SMILES	AUC [1] [ng·h/mL]	Ki [2]	bioavailability [3] [%]	Ki (Neutrophil elastase) [µM]	AUC [4] [ng·h/mL]	Ki (Serine protease 1 [5]) [µM]	AUC [6] [ng·h/mL]	Ki [7]	Ki (Cathepsin G)	bioavailability [8] [%]	Ki (Acetylcholinesterase)	Ki (Serine protease 1 [9])
COC(=O)N[C@H](C(=O)N1CCC[C@H]1C(=O)N[C@H](C(=O)C(F)(F)F)C(C)C)C(C)C (Moc-Val-Pro-Val-CF3)	5480	No inhibition	70	0.013	2160	66.6	6540	No inhibition	No inhibition	–	–	–
COc1ccc(C(=O)N[C@H](C(=O)N2CCC[C@H]2C(=O)N[C@H](C(=O)C(F)(F)F)C(C)C)C(C)C)cc1 (stereo in doubt; 1k)	1400	–	–	–	355	–	1250	No inhibition	–	39	No inhibition	No inhibition
